Assays:
Conditions in all cases: Compound concentration 1000.0 nM
[1] = molecular target: T1, Activin receptor type-1B (Homo sapiens) (UniProt P36896)
T1 sequence (whole entry): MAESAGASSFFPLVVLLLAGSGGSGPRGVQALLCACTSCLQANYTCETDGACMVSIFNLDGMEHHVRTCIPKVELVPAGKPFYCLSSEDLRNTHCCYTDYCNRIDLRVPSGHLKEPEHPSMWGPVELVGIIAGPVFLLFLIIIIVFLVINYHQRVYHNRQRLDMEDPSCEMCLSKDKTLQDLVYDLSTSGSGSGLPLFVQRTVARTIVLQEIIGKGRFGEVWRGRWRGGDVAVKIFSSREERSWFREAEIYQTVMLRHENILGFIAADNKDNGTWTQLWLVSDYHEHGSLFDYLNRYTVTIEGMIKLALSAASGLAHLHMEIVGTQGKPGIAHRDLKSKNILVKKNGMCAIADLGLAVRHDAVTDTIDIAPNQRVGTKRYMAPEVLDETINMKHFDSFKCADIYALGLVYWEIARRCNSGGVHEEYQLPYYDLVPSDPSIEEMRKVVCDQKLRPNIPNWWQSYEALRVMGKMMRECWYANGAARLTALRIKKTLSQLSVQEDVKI

[2] = molecular target: Calcium/calmodulin-dependent protein kinase type II subunit beta (Homo sapiens) (UniProt Q13554)
[3] = molecular target: Calcium/calmodulin-dependent protein kinase kinase 2 (Homo sapiens) (UniProt Q96RR4)
[4] = molecular target: Dual specificity protein kinase CLK2 (Homo sapiens) (UniProt P49760)
[5] = molecular target: Mitogen-activated protein kinase 3 (Homo sapiens) (UniProt P27361)
[6] = molecular target: Tyrosine-protein kinase Fer (Homo sapiens) (UniProt P16591)
[7] = test system: Receptor-type tyrosine-protein kinase FLT3 (Homo sapiens), P36888 [D835V]
[8] = molecular target: Protein kinase C theta type (Homo sapiens) (UniProt Q04759)
[9] = molecular target: Serine/threonine-protein kinase PRP4 homolog (Homo sapiens) (UniProt Q13523)
[10] = molecular target: Serine/threonine-protein kinase SIK3 (Homo sapiens) (UniProt Q9Y2K2)
[11] = molecular target: T2, Tyrosine-protein kinase Tec (Homo sapiens) (UniProt P42680)
T2 sequence (whole entry): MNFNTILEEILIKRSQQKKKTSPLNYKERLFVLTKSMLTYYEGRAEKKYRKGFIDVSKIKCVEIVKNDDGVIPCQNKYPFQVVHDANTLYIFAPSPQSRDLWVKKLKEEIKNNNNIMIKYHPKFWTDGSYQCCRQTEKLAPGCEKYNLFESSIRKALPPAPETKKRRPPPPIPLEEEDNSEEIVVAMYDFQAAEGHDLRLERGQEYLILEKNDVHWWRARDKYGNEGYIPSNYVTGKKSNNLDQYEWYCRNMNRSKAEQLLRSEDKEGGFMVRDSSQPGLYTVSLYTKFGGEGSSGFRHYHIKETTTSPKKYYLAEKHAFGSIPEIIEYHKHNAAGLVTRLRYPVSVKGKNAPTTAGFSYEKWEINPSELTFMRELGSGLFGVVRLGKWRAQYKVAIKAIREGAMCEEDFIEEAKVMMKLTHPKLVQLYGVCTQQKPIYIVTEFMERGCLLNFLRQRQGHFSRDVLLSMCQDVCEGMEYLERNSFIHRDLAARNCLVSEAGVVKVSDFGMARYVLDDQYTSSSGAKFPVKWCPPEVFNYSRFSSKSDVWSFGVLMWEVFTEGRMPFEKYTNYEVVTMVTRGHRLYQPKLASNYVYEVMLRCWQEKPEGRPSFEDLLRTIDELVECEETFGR

[12] = molecular target: TGF-beta receptor type-2 (Homo sapiens) (UniProt P37173)
[13] = molecular target: Vascular endothelial growth factor receptor 2 (Homo sapiens) (UniProt P35968)
[14] = molecular target: Serine/threonine-protein kinase WNK3 (Homo sapiens) (UniProt Q9BYP7)
[15] = molecular target: Serine/threonine-protein kinase 32C (Homo sapiens) (UniProt Q86UX6)

Measured: residual activity

Chain of Mitogen-activated protein kinase 3 (Homo sapiens) (P27361 whole entry): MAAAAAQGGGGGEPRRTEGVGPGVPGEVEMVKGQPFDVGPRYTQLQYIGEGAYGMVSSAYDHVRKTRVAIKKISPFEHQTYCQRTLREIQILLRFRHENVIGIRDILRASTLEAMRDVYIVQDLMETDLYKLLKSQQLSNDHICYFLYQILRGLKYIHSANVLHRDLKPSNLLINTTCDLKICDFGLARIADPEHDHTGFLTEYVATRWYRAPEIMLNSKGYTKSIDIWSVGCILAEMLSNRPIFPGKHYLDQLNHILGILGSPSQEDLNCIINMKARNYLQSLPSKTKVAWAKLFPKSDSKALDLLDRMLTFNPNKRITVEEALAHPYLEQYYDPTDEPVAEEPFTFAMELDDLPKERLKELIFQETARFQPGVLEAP
Chain of Serine/threonine-protein kinase 32C (Homo sapiens) (Q86UX6 whole entry): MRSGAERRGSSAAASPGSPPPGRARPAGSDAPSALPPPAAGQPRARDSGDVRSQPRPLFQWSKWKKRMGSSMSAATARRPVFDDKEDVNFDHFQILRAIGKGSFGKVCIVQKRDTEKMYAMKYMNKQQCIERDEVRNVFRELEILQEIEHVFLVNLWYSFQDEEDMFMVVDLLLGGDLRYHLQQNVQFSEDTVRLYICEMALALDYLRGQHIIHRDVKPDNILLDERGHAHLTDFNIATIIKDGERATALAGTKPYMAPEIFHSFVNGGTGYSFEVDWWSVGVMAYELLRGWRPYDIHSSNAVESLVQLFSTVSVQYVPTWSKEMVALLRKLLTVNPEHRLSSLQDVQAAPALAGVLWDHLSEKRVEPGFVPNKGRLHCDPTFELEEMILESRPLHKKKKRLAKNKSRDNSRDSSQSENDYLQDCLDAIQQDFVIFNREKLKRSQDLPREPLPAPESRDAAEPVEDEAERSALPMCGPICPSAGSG
Chain of Serine/threonine-protein kinase PRP4 homolog (Homo sapiens) (Q13523 whole entry): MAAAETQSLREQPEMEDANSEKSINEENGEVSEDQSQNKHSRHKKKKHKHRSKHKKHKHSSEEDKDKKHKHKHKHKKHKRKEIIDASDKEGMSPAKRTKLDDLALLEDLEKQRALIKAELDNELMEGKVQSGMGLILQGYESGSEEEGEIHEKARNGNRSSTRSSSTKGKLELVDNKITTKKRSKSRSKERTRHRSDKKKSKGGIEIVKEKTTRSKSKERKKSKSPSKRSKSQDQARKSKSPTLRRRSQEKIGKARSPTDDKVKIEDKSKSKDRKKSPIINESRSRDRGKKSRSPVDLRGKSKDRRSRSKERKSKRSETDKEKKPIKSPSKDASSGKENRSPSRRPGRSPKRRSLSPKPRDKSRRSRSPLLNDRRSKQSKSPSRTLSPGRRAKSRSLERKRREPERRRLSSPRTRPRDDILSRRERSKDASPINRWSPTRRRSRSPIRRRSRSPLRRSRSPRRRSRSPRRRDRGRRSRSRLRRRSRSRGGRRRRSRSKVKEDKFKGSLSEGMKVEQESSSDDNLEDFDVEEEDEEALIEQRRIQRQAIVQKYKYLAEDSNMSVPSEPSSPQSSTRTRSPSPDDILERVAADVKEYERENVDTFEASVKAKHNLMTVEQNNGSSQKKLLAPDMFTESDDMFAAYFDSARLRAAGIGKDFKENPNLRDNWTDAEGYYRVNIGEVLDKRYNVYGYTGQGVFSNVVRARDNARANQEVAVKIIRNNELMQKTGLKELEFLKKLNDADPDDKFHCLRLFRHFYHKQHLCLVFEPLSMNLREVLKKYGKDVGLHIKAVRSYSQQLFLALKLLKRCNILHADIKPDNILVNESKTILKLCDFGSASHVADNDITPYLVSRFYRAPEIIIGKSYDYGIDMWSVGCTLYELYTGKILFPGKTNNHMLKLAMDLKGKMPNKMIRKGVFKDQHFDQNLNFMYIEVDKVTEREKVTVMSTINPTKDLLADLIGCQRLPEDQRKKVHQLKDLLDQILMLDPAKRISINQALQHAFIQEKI
Chain of Serine/threonine-protein kinase SIK3 (Homo sapiens) (Q9Y2K2 whole entry, looked up): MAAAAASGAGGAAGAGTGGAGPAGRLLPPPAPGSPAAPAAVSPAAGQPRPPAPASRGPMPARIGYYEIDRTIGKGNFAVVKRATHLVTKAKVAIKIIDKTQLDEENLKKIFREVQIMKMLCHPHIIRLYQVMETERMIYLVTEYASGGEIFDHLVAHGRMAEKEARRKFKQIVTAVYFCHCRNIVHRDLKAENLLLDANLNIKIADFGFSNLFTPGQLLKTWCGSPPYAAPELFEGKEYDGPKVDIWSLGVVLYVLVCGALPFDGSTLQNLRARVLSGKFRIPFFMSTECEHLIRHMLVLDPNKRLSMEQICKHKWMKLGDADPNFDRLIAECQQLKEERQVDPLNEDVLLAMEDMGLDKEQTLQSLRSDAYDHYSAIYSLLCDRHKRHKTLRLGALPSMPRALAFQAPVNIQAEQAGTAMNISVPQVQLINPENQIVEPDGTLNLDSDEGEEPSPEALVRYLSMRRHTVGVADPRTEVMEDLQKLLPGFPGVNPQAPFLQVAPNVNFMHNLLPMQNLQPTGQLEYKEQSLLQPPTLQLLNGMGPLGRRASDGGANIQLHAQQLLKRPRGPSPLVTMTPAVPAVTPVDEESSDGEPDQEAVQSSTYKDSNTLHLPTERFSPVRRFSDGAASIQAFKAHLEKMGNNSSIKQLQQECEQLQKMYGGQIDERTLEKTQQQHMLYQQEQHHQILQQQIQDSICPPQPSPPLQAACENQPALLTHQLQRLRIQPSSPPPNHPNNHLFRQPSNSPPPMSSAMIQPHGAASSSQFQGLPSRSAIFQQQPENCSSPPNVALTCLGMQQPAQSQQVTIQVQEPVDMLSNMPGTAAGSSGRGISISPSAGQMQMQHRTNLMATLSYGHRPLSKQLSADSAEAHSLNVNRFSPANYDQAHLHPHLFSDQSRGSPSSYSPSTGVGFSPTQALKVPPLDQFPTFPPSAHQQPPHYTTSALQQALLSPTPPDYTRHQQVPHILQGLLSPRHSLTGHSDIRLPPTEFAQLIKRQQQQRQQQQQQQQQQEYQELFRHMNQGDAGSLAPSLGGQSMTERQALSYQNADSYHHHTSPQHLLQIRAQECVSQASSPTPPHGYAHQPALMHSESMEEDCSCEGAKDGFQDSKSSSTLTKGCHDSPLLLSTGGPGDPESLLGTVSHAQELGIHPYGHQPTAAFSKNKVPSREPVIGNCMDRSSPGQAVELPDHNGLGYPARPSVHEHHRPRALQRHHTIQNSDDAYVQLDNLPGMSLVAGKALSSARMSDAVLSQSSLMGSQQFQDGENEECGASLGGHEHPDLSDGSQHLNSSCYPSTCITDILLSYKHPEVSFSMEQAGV
Chain of Protein kinase C theta type (Homo sapiens) (Q04759 whole entry, looked up): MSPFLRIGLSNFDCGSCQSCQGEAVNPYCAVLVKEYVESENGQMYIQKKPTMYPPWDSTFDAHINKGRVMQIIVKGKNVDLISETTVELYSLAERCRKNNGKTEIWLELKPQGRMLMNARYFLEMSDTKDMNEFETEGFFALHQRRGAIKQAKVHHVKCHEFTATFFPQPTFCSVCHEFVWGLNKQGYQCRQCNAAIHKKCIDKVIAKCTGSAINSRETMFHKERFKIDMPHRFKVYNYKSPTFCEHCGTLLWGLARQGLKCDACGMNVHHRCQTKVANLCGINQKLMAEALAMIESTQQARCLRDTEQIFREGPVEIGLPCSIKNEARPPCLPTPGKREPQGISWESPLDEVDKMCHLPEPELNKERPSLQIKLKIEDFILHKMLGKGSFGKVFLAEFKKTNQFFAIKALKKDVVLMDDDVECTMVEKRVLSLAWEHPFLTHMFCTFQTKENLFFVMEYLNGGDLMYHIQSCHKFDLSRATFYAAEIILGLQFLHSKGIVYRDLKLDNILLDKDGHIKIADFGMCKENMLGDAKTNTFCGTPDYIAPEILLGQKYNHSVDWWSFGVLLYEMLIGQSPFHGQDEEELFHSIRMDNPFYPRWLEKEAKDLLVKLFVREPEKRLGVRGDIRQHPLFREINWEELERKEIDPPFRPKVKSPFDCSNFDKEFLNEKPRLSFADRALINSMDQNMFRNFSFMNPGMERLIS
Chain of TGF-beta receptor type-2 (Homo sapiens) (P37173 whole entry): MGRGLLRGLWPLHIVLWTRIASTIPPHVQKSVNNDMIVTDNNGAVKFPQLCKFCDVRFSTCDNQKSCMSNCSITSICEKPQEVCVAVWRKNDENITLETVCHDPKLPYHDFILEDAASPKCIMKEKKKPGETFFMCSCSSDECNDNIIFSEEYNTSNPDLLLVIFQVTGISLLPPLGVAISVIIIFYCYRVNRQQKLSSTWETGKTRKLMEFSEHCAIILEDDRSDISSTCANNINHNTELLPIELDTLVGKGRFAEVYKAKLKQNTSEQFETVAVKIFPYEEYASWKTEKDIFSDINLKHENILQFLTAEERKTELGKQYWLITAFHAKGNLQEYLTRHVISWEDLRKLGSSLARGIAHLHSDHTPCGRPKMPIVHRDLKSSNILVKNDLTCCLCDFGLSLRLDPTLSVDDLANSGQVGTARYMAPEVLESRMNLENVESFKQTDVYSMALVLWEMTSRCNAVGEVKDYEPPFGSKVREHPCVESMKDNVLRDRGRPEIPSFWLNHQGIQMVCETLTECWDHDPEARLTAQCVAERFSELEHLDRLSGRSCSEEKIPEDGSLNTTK
Chain of Calcium/calmodulin-dependent protein kinase kinase 2 (Homo sapiens) (Q96RR4 2-588 limits assumed): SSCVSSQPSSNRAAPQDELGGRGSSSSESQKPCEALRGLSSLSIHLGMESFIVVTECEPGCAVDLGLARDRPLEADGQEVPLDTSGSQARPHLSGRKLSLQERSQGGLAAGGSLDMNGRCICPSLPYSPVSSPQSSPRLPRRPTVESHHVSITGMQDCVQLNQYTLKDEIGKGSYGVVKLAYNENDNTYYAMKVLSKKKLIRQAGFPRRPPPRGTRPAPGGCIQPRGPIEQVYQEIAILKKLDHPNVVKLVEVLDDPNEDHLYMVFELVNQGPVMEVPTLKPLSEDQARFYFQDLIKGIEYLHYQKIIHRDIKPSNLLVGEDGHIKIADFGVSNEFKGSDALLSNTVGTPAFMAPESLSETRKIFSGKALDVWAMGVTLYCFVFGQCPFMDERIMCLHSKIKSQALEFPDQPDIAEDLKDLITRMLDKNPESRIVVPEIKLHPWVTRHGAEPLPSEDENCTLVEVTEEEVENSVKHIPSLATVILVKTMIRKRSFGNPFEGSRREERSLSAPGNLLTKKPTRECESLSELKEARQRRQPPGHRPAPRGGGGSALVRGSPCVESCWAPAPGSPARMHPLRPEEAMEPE

Cc1nc(C2CCN(C(=O)c3ccc(OC(F)(F)F)cc3N)CC2)c2ncc(N3CCN(C)CC3)cc2n1 [BAY-693]
inactive: [1] 86% | [2] 100% | [3] 100% | [4] 100% | [5] 98% | [6] 99% | [7] 79% | [8] 93% | [9] 96% | [10] 91% | [11] 96% | [12] 93% | [13] 93% | [14] 94% | [15] 100%

CN1CCN(c2cnc3c(C4CCN(C(=O)c5ccc(OC(F)(F)F)cc5N)CC4)ncnc3c2)CC1 [BAY-885]
inactive: [1] 79% | [2] 100% | [3] 100% | [4] 100% | [5] 100% | [6] 100% | [7] 90% | [8] 91% | [9] 100% | [10] 100% | [11] 100% | [12] 88% | [13] 100% | [14] 100% | [15] 100%

From ChEMBL document CHEMBL4507268 (2021)
